# pIC50: −log10 of the molar value.
# Experiments:
# Type in all cases: cell-based
# [1] = target: T1, human TLR9 (Homo sapiens, UniProt Q9NR96); assay: TLR9 inhibition reporter assay (HEK-Blue cells, SEAP reporter, ODN2006 stimulation); conditions: HEK-Blue cells overexpressing human TLR9, SEAP reporter, ODN2006 5 nM
# T1 construct: host or cells: HEK-Blue cells
# T1 sequence (Q9NR96 26-1032): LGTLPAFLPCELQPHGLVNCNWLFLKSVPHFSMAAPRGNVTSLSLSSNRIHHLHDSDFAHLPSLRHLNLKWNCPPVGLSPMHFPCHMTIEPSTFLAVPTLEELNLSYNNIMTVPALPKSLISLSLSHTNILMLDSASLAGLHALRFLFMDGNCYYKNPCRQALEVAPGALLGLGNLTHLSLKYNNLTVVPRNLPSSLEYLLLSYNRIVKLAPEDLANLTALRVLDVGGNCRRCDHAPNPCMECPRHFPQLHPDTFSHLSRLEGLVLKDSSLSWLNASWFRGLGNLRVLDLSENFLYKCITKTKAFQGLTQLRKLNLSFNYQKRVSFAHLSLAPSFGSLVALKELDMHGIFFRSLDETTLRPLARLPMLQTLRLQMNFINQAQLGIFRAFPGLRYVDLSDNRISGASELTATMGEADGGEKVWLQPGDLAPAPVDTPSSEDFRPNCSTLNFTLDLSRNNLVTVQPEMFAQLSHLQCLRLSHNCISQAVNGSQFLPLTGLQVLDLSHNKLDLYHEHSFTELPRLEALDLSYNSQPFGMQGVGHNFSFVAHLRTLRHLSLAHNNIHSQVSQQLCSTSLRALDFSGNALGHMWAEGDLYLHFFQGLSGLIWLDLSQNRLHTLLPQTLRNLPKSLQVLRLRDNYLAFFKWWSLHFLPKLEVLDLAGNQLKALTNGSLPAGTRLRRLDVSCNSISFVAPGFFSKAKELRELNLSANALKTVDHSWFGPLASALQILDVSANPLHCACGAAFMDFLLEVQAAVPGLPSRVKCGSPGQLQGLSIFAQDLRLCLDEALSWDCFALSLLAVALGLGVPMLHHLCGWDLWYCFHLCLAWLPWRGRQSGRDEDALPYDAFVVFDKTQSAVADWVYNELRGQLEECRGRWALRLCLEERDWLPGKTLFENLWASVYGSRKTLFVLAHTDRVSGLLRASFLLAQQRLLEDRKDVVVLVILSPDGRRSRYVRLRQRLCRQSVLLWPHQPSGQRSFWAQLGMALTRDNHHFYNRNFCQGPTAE
# Outline: (§1)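 Percent inhibition of agonist-induced SEAP, set between agonist+DMSO wells and known-inhibitor wells, after 22 h at 37° C. Compounds (0.05 nM-50 μM final) were added 30 min at room temperature before ligand: gardiquimod 7.5 μM for TLR7, R848 15.9 μM for TLR8, ODN2006 5 nM for TLR9. Human receptors overexpressed in HEK-Blue reporter cells.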
# [2] = target: T2, human TLR7 (Homo sapiens, UniProt Q9NYK1); assay: TLR7 inhibition reporter assay (HEK-Blue cells, SEAP reporter, gardiquimod stimulation); conditions: HEK-Blue cells overexpressing human TLR7, SEAP reporter, gardiquimod 7.5 μM
# T2 construct: host or cells: HEK-Blue cells
# T2 sequence (Q9NYK1 27-1049): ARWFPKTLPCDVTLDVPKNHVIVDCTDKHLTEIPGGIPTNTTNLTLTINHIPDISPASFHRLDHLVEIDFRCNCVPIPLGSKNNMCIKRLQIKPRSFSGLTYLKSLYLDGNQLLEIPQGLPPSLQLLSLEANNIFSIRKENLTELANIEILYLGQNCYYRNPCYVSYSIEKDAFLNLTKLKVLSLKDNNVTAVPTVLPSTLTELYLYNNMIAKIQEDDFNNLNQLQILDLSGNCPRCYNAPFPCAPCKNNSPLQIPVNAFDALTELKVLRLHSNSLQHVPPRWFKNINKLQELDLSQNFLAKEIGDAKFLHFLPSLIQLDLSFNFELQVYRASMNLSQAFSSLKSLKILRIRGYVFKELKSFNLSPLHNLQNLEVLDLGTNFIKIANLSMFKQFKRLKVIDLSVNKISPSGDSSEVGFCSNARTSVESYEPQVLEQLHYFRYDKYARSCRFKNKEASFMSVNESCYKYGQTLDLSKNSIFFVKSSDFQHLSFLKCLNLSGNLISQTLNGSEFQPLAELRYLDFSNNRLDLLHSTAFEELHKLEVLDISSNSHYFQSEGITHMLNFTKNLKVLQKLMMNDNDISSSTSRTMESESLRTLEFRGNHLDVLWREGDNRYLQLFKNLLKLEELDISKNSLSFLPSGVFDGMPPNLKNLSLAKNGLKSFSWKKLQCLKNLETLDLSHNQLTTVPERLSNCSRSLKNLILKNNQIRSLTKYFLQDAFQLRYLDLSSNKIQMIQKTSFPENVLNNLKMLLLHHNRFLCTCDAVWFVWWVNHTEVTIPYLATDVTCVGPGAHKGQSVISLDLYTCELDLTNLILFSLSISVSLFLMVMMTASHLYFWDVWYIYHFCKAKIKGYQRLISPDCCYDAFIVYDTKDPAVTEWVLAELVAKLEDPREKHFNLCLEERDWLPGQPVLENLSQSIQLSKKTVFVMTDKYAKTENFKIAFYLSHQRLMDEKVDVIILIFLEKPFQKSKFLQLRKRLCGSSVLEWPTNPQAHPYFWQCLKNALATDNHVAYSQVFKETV
# Outline: as §1
# [3] = target: T3, human TLR8 (Homo sapiens, UniProt Q9NR97); assay: TLR8 inhibition reporter assay (HEK-Blue cells, SEAP reporter, R848 stimulation); conditions: HEK-Blue cells overexpressing human TLR8, SEAP reporter, R848 15.9 μM
# T3 construct: host or cells: HEK-Blue cells
# T3 sequence (Q9NR97 27-1041): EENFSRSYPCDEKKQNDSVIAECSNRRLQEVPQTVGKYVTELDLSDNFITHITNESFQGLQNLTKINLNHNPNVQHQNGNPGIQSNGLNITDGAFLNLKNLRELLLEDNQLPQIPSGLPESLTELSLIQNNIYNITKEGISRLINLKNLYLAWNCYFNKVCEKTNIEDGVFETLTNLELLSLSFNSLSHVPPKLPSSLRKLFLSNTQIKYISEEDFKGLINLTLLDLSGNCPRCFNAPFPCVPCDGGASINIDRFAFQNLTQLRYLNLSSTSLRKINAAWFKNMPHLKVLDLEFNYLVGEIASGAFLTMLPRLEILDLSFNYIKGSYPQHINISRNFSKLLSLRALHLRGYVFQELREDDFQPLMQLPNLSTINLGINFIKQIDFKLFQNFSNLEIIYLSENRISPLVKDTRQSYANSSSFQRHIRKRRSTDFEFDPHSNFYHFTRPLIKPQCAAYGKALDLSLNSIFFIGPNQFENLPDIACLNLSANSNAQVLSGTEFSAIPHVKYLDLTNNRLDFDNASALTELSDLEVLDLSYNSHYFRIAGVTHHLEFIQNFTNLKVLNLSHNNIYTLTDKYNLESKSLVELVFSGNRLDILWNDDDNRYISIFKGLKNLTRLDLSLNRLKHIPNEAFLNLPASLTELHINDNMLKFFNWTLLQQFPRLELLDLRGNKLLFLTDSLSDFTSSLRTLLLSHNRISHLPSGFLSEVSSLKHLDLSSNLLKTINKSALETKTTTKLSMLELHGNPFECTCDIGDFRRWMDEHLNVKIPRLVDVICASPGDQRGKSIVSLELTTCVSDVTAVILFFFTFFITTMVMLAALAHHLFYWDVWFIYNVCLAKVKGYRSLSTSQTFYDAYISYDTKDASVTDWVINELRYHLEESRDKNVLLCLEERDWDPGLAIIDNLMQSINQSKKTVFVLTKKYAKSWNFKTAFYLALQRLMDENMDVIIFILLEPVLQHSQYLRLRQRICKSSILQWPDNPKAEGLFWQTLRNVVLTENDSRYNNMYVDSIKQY
# Outline: as §1
Compound,pIC50 [1],pIC50 [2],pIC50 [3]
Cc1cc(-c2[nH]nc(-c3ccc(N4CCNCC4)cc3)c2C(C)C)cn2ncnc12 [Example 406],< 4.30,8.56,6.85
COc1cc(-c2[nH]nc(-c3ccc(C4CN(CC(C)(C)O)C4)cc3)c2C(C)C)cn2ncnc12 [Example 337],4.37,8.08,8.12
Cc1cc(-c2[nH]nc(-c3ccc(N)cc3)c2C(C)C)cn2ncnc12 [Example 233],< 4.30,8.64,9.23
"Cc1cc(-c2[nH]nc(C3CCC(N4CCN(C)CC4)CC3)c2C(C)C)cn2ncnc12 (single isomer, unassigned) [Example 286]",< 4.30,7.59,7.84
"Cc1cc(-c2[nH]nc(C3CCC(NCCN(C)C)CC3)c2C(C)C)cn2ncnc12 (single isomer, unassigned) [Example 285]",< 4.30,8.11,8.57
Cc1cc(-c2[nH]nc(C(=O)NC3CCN(C)CC3)c2C(C)C)cn2ncnc12 [Example 8],4.51,8.61,8.27
COc1cc(-c2[nH]nc(-c3cnc(C4CCN(C(=O)CN(C)C)CC4)cn3)c2C(C)C)cn2ncnc12 [Example 403],< 4.30,7.57,6.81
Cc1cc(-c2[nH]nc(C(=O)N[C@H]3CC[C@H](NC(C)CC(C)(C)C)CC3)c2C(C)C)cn2ncnc12 (stereo partly drawn) [Example 120],< 4.30,8.38,7.78
"CCN1CC(C(=O)N(C)C2CCC(c3n[nH]c(-c4cc(C)c5ncnn5c4)c3C(C)C)CC2)C1 (single isomer, unassigned) [Example 305]",< 4.30,6.51,7.15

# Stronger by pIC50 [1], values ahead:
pIC50 [1],pIC50 [2],pIC50 [3],Compound
5.00,8.71,9.57,Cc1cc(-c2[nH]nc(-c3cncc(NC(C)C)c3)c2C(C)C)cn2ncnc12 [Example 239]
4.79,8.74,8.50,"Cc1cc(-c2[nH]nc(C(=O)NC3CCN(C(C)CS(C)(=O)=O)CC3)c2C(C)C)cn2ncnc12 (stereo not drawn) [Example 174, 4-isopropyl-5-(8-methyl-[1,2,4]triazolo[1,5-a]pyridin-6-yl)-N-(1-(1-(methylsulfonyl)propan-2-yl)piperidin-4-yl)-1H-pyrazole-3-carboxamide]"
4.83,8.64,8.22,Cc1cc(-c2[nH]nc(-c3ccc4c(c3)CCNC4=O)c2C(C)C)cn2ncnc12 [Example 215]
5.11,8.82,9.01,COc1ncc(CN[C@H]2CC[C@@H](NC(=O)c3n[nH]c(-c4cc(C)c5ncnn5c4)c3C(C)C)CC2)cn1 [Example 96]
5.17,8.05,8.03,"Cc1cc(-c2[nH]nc(C(=O)C(=O)NC3CCN(C(C)C)CC3)c2C(C)C)cn2ncnc12 [Example 183, 2-(4-isopropyl-5-(8-methyl-[1,2,4]triazolo[1,5-a]pyridin-6-yl)-1H-pyrazol-3-yl)-N-(1-isopropylpiperidin-4-yl)-2-oxoacetamide]"
4.97,9.15,9.24,"Cc1cc(-c2c(C(C)C)c(C(=O)NC3CCN(C(C)C)CC3)nn2C)cn2ncnc12 [Example 188, 4-isopropyl-N-(1-isopropylpiperidin-4-yl)-1-methyl-5-(8-methyl-[1,2,4]triazolo[1,5-a]pyridin-6-yl)-1H-pyrazole-3-carboxamide]"
4.94,9.35,8.62,CNC1CCC(NC(=O)c2n[nH]c(-c3cc(C)c4ncnn4c3)c2C(C)C)CC1 (stereo not drawn) [Example 130]
5.26,8.11,8.18,Cc1cc(-c2[nH]nc(C(=O)NC3CCC(N(C)C)CC3)c2C(C)C)cn2ncnc12 (stereo not drawn) [Example 7]
5.18,9.24,8.84,Cc1cc(-c2[nH]nc(C(=O)NC3CCN(C4COC4)CC3)c2C(C)C)cn2ncnc12 [Example 70]
5.05,8.10,9.38,"CNC1CCC(c2n[nH]c(-c3cc(C)c4ncnn4c3)c2C(C)C)CC1 (single isomer, unassigned) [Example 294]"
4.73,7.05,8.25,COCC(C)N[C@H]1CC[C@@H](NC(=O)c2n[nH]c(-c3cc(C)c4ncnn4c3)c2C(C)C)CC1 (stereo partly drawn) [Example 147]
5.26,8.62,7.38,Cc1cc(-c2[nH]nc(C(=O)N[C@H]3CC[C@@H](NC4CCOC(C)(C)C4)CC3)c2C(C)C)cn2ncnc12 (stereo partly drawn) [Example 97]
5.84,9.05,8.58,Cc1cc(-c2[nH]nc(C(=O)NC3CCN(CCC(C)C)CC3)c2C(C)C)cn2ncnc12 [Example 76]
4.94,7.60,7.36,COc1cc(-c2[nH]nc(-c3cnc(C4CCN(C5CCC5)CC4)cn3)c2C(C)C)cn2ncnc12 [Example 387]

# From patent publication US20230117470A1, “SUBSTITUTED PYRAZOLE COMPOUNDS AS TOLL RECEPTOR INHIBITORS” (BRISTOL-MYERS SQUIBB COMPANY, priority 2019, published 2023)
